Assay results as given in ChEMBL document CHEMBL1134924, “An efficient and practical method for solid-phase synthesis of tripeptide-bearing glycopeptide antibiotics: combinatorial parallel synthesis of carboxamide derivatives of chloroorienticin B” (2002).
≈ marks a conversion by molar mass, not a printed value.

What was measured:
Assay type in all cases: functional
Staphylococcus aureus = assay: In vitro antibacterial activity against MRSA (Methicillin Resistant Staphylococcus aureus SR-3637)
Enterococcus faecium = assay: In vitro antibacterial activity against VRE (Vancomycin Resistant Enterococcus faecium SR-7917)
Enterococcus faecalis = assay: In vitro antibacterial activity against VRE (Vancomycin Resistant Enterococcus faecalis SR-7914)

SMILES	MIC (Staphylococcus aureus) [mg/L]	MIC (Enterococcus faecium) [mg/L]	MIC (Enterococcus faecalis) [mg/L]
CN[C@H](CC(C)C)C(=O)N[C@H]1C(=O)N[C@@H](CC(N)=O)C(=O)N[C@H]2C(=O)N[C@H]3C(=O)NC(C(=O)N[C@@H](C(=O)NC(=O)[C@H](CCC(=O)O)NC(=O)CNC(=O)[C@@H](N)Cc4ccc(O)cc4)c4cc(O)cc(O)c4-c4cc3ccc4O)[C@H](O[C@H]3C[C@](C)(N)[C@@H](O)[C@H](C)O3)c3ccc(c(Cl)c3)Oc3cc2cc(c3O[C@@H]2O[C@H](CO)[C@@H](O)[C@H](O)[C@H]2O)Oc2ccc(cc2Cl)[C@H]1O	4 (≈ 2.23 µM)	> 128	> 128
CN[C@H](CC(C)C)C(=O)N[C@H]1C(=O)N[C@@H](CC(N)=O)C(=O)N[C@H]2C(=O)N[C@H]3C(=O)NC(C(=O)N[C@@H](C(=O)NC(=O)[C@H](CCCCN)NC(=O)[C@H](Cc4c[nH]c5ccccc45)NC(=O)[C@@H](N)CC(C)C)c4cc(O)cc(O)c4-c4cc3ccc4O)[C@H](O[C@H]3C[C@](C)(N)[C@@H](O)[C@H](C)O3)c3ccc(c(Cl)c3)Oc3cc2cc(c3O[C@@H]2O[C@H](CO)[C@@H](O)[C@H](O)[C@H]2O)Oc2ccc(cc2Cl)[C@H]1O	0.5 (≈ 0.267 µM)	16 (≈ 8.53 µM)	32 (≈ 17.1 µM)
CN[C@H](CC(C)C)C(=O)N[C@H]1C(=O)N[C@@H](CC(N)=O)C(=O)N[C@H]2C(=O)N[C@H]3C(=O)NC(C(=O)N[C@@H](C(=O)NC(=O)[C@H](CCCCN)NC(=O)CNC(=O)[C@@H](N)Cc4ccc(O)cc4)c4cc(O)cc(O)c4-c4cc3ccc4O)[C@H](O[C@H]3C[C@](C)(N)[C@@H](O)[C@H](C)O3)c3ccc(c(Cl)c3)Oc3cc2cc(c3O[C@@H]2O[C@H](CO)[C@@H](O)[C@H](O)[C@H]2O)Oc2ccc(cc2Cl)[C@H]1O	0.5 (≈ 0.278 µM)	64 (≈ 35.6 µM)	128 (≈ 71.2 µM)
CN[C@H](CC(C)C)C(=O)N[C@H]1C(=O)N[C@@H](CC(N)=O)C(=O)N[C@H]2C(=O)N[C@H]3C(=O)N[C@H](C(=O)N[C@H](C(=O)NC(=O)[C@H](Cc4c[nH]cn4)NC(=O)[C@@H]4CCCN4C(=O)[C@@H](N)Cc4c[nH]c5ccccc45)c4cc(O)cc(O)c4-c4cc3ccc4O)[C@H](O[C@H]3C[C@](C)(N)[C@@H](O)[C@H](C)O3)c3ccc(c(Cl)c3)Oc3cc2cc(c3OC2O[C@H](CO)[C@@H](O)[C@H](O)[C@H]2O)Oc2ccc(cc2Cl)[C@H]1O (some centres not stated)	0.5 (≈ 0.268 µM)	16 (≈ 8.56 µM)	64 (≈ 34.2 µM)
CN[C@H](CC(C)C)C(=O)N[C@H]1C(=O)N[C@@H](CC(N)=O)C(=O)N[C@H]2C(=O)N[C@H]3C(=O)NC(C(=O)N[C@@H](C(=O)NC(=O)[C@H](Cc4c[nH]cn4)NC(=O)[C@H](Cc4c[nH]c5ccccc45)NC(=O)[C@@H](N)Cc4ccc(O)cc4)c4cc(O)cc(O)c4-c4cc3ccc4O)[C@H](O[C@H]3C[C@](C)(N)[C@@H](O)[C@H](C)O3)c3ccc(c(Cl)c3)Oc3cc2cc(c3O[C@@H]2O[C@H](CO)[C@@H](O)[C@H](O)[C@H]2O)Oc2ccc(cc2Cl)[C@H]1O	0.5 (≈ 0.258 µM)	8 (≈ 4.13 µM)	16 (≈ 8.27 µM)
CN[C@H](CC(C)C)C(=O)N[C@H]1C(=O)N[C@@H](CC(N)=O)C(=O)N[C@H]2C(=O)N[C@H]3C(=O)NC(C(=O)N[C@@H](C(=O)NC(=O)CNC(=O)[C@H](Cc4c[nH]cn4)NC(=O)[C@@H](N)Cc4c[nH]c5ccccc45)c4cc(O)cc(O)c4-c4cc3ccc4O)[C@H](O[C@H]3C[C@](C)(N)[C@@H](O)[C@H](C)O3)c3ccc(c(Cl)c3)Oc3cc2cc(c3O[C@@H]2O[C@H](CO)[C@@H](O)[C@H](O)[C@H]2O)Oc2ccc(cc2Cl)[C@H]1O	0.25 (≈ 0.137 µM)	16 (≈ 8.75 µM)	32 (≈ 17.5 µM)
CN[C@H](CC(C)C)C(=O)N[C@H]1C(=O)N[C@@H](CC(N)=O)C(=O)N[C@H]2C(=O)N[C@H]3C(=O)NC(C(=O)N[C@@H](C(=O)NC(=O)CNC(=O)[C@H](Cc4c[nH]c5ccccc45)NC(=O)[C@@H](N)CCCCN)c4cc(O)cc(O)c4-c4cc3ccc4O)[C@H](O[C@H]3C[C@](C)(N)[C@@H](O)[C@H](C)O3)c3ccc(c(Cl)c3)Oc3cc2cc(c3O[C@@H]2O[C@H](CO)[C@@H](O)[C@H](O)[C@H]2O)Oc2ccc(cc2Cl)[C@H]1O	0.25 (≈ 0.137 µM)	32 (≈ 17.6 µM)	64 (≈ 35.2 µM)
CN[C@H](CC(C)C)C(=O)N[C@H]1C(=O)N[C@@H](CC(N)=O)C(=O)N[C@H]2C(=O)N[C@H]3C(=O)NC(C(=O)N[C@@H](C(=O)NC(=O)[C@H](Cc4ccc(O)cc4)NC(=O)[C@H](Cc4c[nH]c5ccccc45)NC(=O)[C@@H](N)CCC(=O)O)c4cc(O)cc(O)c4-c4cc3ccc4O)[C@H](O[C@H]3C[C@](C)(N)[C@@H](O)[C@H](C)O3)c3ccc(c(Cl)c3)Oc3cc2cc(c3O[C@@H]2O[C@H](CO)[C@@H](O)[C@H](O)[C@H]2O)Oc2ccc(cc2Cl)[C@H]1O	8 (≈ 4.15 µM)	> 128	> 128
CN[C@H](CC(C)C)C(=O)N[C@H]1C(=O)N[C@@H](CC(N)=O)C(=O)N[C@H]2C(=O)N[C@H]3C(=O)NC(C(=O)N[C@@H](C(=O)NC(=O)[C@H](CO)NC(=O)[C@H](Cc4c[nH]c5ccccc45)NC(=O)[C@@H](N)Cc4ccc(O)cc4)c4cc(O)cc(O)c4-c4cc3ccc4O)[C@H](OC3C[C@](C)(N)[C@@H](O)[C@H](C)O3)c3ccc(c(Cl)c3)Oc3cc2cc(c3O[C@@H]2O[C@H](CO)[C@@H](O)[C@H](O)[C@H]2O)Oc2ccc(cc2Cl)[C@H]1O (some centres not stated)	0.5 (≈ 0.265 µM)	16 (≈ 8.49 µM)	32 (≈ 17 µM)
CN[C@H](CC(C)C)C(=O)N[C@H]1C(=O)N[C@@H](CC(N)=O)C(=O)N[C@H]2C(=O)N[C@H]3C(=O)NC(C(=O)N[C@@H](C(=O)NC(=O)[C@H](CCCCN)NC(=O)[C@H](Cc4ccc(O)cc4)NC(=O)[C@@H](N)CC(C)C)c4cc(O)cc(O)c4-c4cc3ccc4O)[C@H](O[C@H]3C[C@](C)(N)[C@@H](O)[C@H](C)O3)c3ccc(c(Cl)c3)Oc3cc2cc(c3O[C@@H]2O[C@H](CO)[C@@H](O)[C@H](O)[C@H]2O)Oc2ccc(cc2Cl)[C@H]1O	0.5 (≈ 0.27 µM)	32 (≈ 17.3 µM)	128 (≈ 69.1 µM)
CN[C@H](CC(C)C)C(=O)N[C@H]1C(=O)N[C@@H](CC(N)=O)C(=O)N[C@H]2C(=O)N[C@H]3C(=O)NC(C(=O)N[C@@H](C(=O)NC(=O)[C@H](Cc4ccc(O)cc4)NC(=O)[C@H](Cc4c[nH]cn4)NC(=O)[C@@H](N)CCCCN)c4cc(O)cc(O)c4-c4cc3ccc4O)[C@H](O[C@H]3C[C@](C)(N)[C@@H](O)[C@H](C)O3)c3ccc(c(Cl)c3)Oc3cc2cc(c3O[C@@H]2O[C@H](CO)[C@@H](O)[C@H](O)[C@H]2O)Oc2ccc(cc2Cl)[C@H]1O	1 (≈ 0.533 µM)	64 (≈ 34.1 µM)	128 (≈ 68.2 µM)
CN[C@H](CC(C)C)C(=O)N[C@H]1C(=O)N[C@@H](CC(N)=O)C(=O)N[C@H]2C(=O)N[C@H]3C(=O)NC(C(=O)N[C@@H](C(=O)NC(=O)[C@H](Cc4ccc(O)cc4)NC(=O)[C@H](Cc4c[nH]c5ccccc45)NC(=O)[C@@H](N)CC(C)C)c4cc(O)cc(O)c4-c4cc3ccc4O)[C@H](O[C@H]3C[C@](C)(N)[C@@H](O)[C@H](C)O3)c3ccc(c(Cl)c3)Oc3cc2cc(c3O[C@@H]2O[C@H](CO)[C@@H](O)[C@H](O)[C@H]2O)Oc2ccc(cc2Cl)[C@H]1O	0.5 (≈ 0.262 µM)	8 (≈ 4.19 µM)	16 (≈ 8.37 µM)
CN[C@H](CC(C)C)C(=O)N[C@H]1C(=O)N[C@@H](CC(N)=O)C(=O)N[C@H]2C(=O)N[C@H]3C(=O)NC(C(=O)N[C@@H](C(=O)NC(=O)[C@H](Cc4c[nH]cn4)NC(=O)[C@H](CCCCN)NC(=O)[C@@H](N)Cc4c[nH]c5ccccc45)c4cc(O)cc(O)c4-c4cc3ccc4O)[C@H](O[C@H]3C[C@](C)(N)[C@@H](O)[C@H](C)O3)c3ccc(c(Cl)c3)Oc3cc2cc(c3O[C@@H]2O[C@H](CO)[C@@H](O)[C@H](O)[C@H]2O)Oc2ccc(cc2Cl)[C@H]1O	< 0.125	8 (≈ 4.21 µM)	64 (≈ 33.7 µM)
CN[C@H](CC(C)C)C(=O)N[C@H]1C(=O)N[C@@H](CC(N)=O)C(=O)N[C@H]2C(=O)N[C@H]3C(=O)NC(C(=O)N[C@@H](C(=O)O)c4cc(O)cc(O)c4-c4cc3ccc4O)[C@H](O[C@H]3C[C@](C)(N)[C@@H](O)[C@H](C)O3)c3ccc(c(Cl)c3)Oc3cc2cc(c3O[C@@H]2O[C@H](CO)[C@@H](O)[C@H](O)[C@H]2O)Oc2ccc(cc2Cl)[C@H]1O	0.5 (≈ 0.345 µM)	> 128	> 128
